The subject of one data set is MAPK3 (ERK1). Put plainly: Inhibition of human MAPK3 (2 to 379 residues) assessed as enzyme activity at 1 uM using 33P ATP by radioactive filter binding assay. Set-up: scale not given: the % may be the effect or the level left.
Data set [1] in a line: Efflux ratio of permeability from basolateral to apical over apical to basolateral side in human Caco2 cells. The data set is classed as ADME, cell-based. The note with it: Caco-2. On the technique in general: Caco-2 cells form a polarised layer with tight junctions and transporters.
Data set [2] concerns the target Serine/threonine-protein kinase PAK 2 (Homo sapiens) (UniProt Q13177). Briefly: Inhibition of human PAK2 (1 to 524 residues) assessed as enzyme activity at 1 uM using 33P ATP by radioactive filter binding assay. Set-up: scale not given: the % may be the effect or the level left.
For data set [3], the target named is Serine/threonine-protein kinase BRSK1 (Homo sapiens) (UniProt Q8TDC3). Put plainly: Inhibition of human BRSK1 (2 to 778 residues) assessed as enzyme activity at 1 uM using 33P ATP by radioactive filter binding assay. Further details: scale not given: the % may be the effect or the level left.
Data set [4] concerns the target Death-associated protein kinase 1 (Homo sapiens) (UniProt P53355). Briefly: Inhibition of human DAPK1 (1 to 363 residues) assessed as enzyme activity at 1 uM using 33P ATP by radioactive filter binding assay. Set-up: scale not given: the % may be the effect or the level left.
Data set [5] has as its target Mitogen-activated protein kinase 1 (Homo sapiens) (UniProt P28482). Briefly: Inhibition of human ERK2 (2 to 360 residues) assessed as enzyme activity at 1 uM using 33P ATP by radioactive filter binding assay. Further details: scale not given: the % may be the effect or the level left.
Data set [6] addresses Ephrin type-A receptor 4 (Homo sapiens) (UniProt P54764). Put plainly: Inhibition of human EPHA4 (570 to 986 residues) assessed as enzyme activity at 1 uM using 33P ATP by radioactive filter binding assay. Further details: scale not given: the % may be the effect or the level left.
The target in data set [7] is Ephrin type-B receptor 2 (Homo sapiens) (UniProt P29323). Briefly: Inhibition of human EPHB2 (560 to 987 residues) assessed as enzyme activity at 1 uM using 33P ATP by radioactive filter binding assay. Further details: scale not given: the % may be the effect or the level left.
The target of data set [8] is Receptor tyrosine-protein kinase erbB-4 (Homo sapiens) (UniProt Q15303). Put plainly: Inhibition of human HER4 (706 to 991 residues) assessed as enzyme activity at 1 uM using 33P ATP by radioactive filter binding assay. Further details: scale not given: the % may be the effect or the level left.
The target of data set [9] is NUAK family SNF1-like kinase 1 (Homo sapiens) (UniProt O60285). Put plainly: Inhibition of human NUAK1 (2 to 660 residues) assessed as enzyme activity at 1 uM using 33P ATP by radioactive filter binding assay. Set-up: scale not given: the % may be the effect or the level left.
In data set [10] the target is Misshapen-like kinase 1 (Homo sapiens) (UniProt Q8N4C8). Briefly: Inhibition of human MINK1 (1 to 320 residues) assessed as enzyme activity at 1 uM using 33P ATP by radioactive filter binding assay. Further details: scale not given: the % may be the effect or the level left.
The target in data set [11] is Serine/threonine-protein kinase TAO1 (Homo sapiens) (UniProt Q7L7X3). Briefly: Inhibition of human TAO1 (1 to 356 residues) assessed as enzyme activity at 1 uM using 33P ATP by radioactive filter binding assay. Set-up: scale not given: the % may be the effect or the level left.
For data set [12], the target named is T1, 3-phosphoinositide-dependent protein kinase 1 (Homo sapiens, UniProt O15530).
T1 sequence (O15530 whole entry): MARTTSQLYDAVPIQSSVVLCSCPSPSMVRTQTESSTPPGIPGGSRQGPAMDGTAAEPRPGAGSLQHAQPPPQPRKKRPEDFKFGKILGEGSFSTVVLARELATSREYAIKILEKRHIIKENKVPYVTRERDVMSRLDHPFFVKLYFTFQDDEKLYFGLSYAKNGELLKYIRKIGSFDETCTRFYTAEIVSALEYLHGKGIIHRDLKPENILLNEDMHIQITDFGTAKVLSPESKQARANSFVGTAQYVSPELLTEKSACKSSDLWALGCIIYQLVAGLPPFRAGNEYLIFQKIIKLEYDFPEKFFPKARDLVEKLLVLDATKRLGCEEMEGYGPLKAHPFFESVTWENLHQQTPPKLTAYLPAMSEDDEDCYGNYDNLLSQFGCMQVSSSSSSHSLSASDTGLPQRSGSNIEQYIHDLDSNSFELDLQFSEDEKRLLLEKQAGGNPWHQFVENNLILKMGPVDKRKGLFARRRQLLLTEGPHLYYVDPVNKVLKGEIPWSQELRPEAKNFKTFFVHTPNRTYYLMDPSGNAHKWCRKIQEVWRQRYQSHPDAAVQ
Put plainly: Inhibition of human PDK1.

Data set [13] addresses Eukaryotic translation initiation factor 2-alpha kinase 3 (Homo sapiens) (UniProt Q9NZJ5). Briefly: Inhibition of human EIF2AK3 (536 to 1116 residues) assessed as enzyme activity at 1 uM using 33P ATP by radioactive filter binding assay. Further details: scale not given: the % may be the effect or the level left.
Data set [14] concerns the target Mitogen-activated protein kinase kinase kinase 1 (Homo sapiens) (UniProt Q13233). Put plainly: Inhibition of human MEKK1 (877 to 1563 residues) assessed as enzyme activity at 1 uM using 33P ATP by radioactive filter binding assay. Further details: scale not given: the % may be the effect or the level left.
Data set [15] addresses Interleukin-1 receptor-associated kinase 1 (Homo sapiens) (UniProt P51617). Briefly: Inhibition of human IRAK1 (1 to 712 residues) assessed as enzyme activity at 1 uM using 33P ATP by radioactive filter binding assay. Set-up: scale not given: the % may be the effect or the level left.
In data set [16] the target is Mitogen-activated protein kinase kinase kinase 11 (Homo sapiens) (UniProt Q16584). Put plainly: Inhibition of human MLK3 (96 to 386 residues) assessed as enzyme activity at 1 uM using 33P ATP by radioactive filter binding assay. Set-up: scale not given: the % may be the effect or the level left.
In data set [17] the target is Dual specificity protein kinase TTK (Homo sapiens) (UniProt P33981). Briefly: Inhibition of human TTK (1 to 857 residues) assessed as enzyme activity at 1 uM using 33P ATP by radioactive filter binding assay. Set-up: scale not given: the % may be the effect or the level left.
Chain of Dual specificity protein kinase TTK (Homo sapiens) (P33981 whole entry, the tested form may be a part): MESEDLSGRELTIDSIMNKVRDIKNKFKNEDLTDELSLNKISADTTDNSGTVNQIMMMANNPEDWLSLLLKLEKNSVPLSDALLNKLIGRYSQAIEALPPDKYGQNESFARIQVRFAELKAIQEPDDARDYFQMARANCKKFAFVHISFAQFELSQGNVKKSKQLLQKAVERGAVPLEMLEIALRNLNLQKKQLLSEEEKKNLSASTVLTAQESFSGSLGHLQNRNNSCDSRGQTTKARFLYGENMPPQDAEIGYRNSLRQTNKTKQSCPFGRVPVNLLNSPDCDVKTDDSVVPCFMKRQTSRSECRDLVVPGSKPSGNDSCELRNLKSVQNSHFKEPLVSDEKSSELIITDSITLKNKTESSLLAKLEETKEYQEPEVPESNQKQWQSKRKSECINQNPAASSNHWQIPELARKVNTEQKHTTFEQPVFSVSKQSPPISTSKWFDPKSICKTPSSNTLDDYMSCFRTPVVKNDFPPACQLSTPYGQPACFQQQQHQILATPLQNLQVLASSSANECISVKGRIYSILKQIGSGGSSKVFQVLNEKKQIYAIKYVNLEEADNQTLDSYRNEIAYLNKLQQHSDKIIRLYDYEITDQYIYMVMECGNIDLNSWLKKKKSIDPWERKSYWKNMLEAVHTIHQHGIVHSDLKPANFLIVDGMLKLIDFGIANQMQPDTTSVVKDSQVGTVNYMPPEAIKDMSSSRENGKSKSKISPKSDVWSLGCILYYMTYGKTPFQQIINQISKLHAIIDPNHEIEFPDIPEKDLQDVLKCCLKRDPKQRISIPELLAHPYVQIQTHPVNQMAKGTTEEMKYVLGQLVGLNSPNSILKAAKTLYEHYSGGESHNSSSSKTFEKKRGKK
The target of data set [18] is Aurora kinase A (Homo sapiens) (UniProt O14965). Briefly: Inhibition of human Aurora A (2 to 403 residues) assessed as enzyme activity at 1 uM using 33P ATP by radioactive filter binding assay. Further details: scale not given: the % may be the effect or the level left.
Chain of Aurora kinase A (Homo sapiens) (O14965 whole entry, the tested form may be a part): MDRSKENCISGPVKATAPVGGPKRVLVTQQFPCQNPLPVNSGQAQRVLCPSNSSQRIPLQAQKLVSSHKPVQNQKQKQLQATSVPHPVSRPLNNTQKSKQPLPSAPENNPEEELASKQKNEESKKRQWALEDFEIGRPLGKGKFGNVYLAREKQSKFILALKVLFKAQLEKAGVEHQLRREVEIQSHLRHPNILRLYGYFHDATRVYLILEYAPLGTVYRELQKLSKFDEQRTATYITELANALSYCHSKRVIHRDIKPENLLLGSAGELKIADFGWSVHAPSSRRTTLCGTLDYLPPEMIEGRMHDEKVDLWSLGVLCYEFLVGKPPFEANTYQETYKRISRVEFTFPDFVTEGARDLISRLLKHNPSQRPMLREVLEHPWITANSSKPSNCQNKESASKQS
Data set [19] has as its target Serine/threonine-protein kinase MARK1 (Homo sapiens) (UniProt Q9P0L2). Put plainly: Inhibition of human MARK1 (2 to 795 residues) assessed as enzyme activity at 1 uM using 33P ATP by radioactive filter binding assay. Further details: scale not given: the % may be the effect or the level left.
Data set [20] concerns the target Mitogen-activated protein kinase kinase kinase 9 (Homo sapiens) (UniProt P80192). Put plainly: Inhibition of human MLK1 (132 to 413 residues) assessed as enzyme activity at 1 uM using 33P ATP by radioactive filter binding assay. Further details: scale not given: the % may be the effect or the level left.
In data set [21] the target is Serine/threonine-protein kinase 33 (Homo sapiens) (UniProt Q9BYT3). Briefly: Inhibition of human STK33 (1 to 514 residues) assessed as enzyme activity at 1 uM using 33P ATP by radioactive filter binding assay. Set-up: scale not given: the % may be the effect or the level left.
Chain of Serine/threonine-protein kinase 33 (Homo sapiens) (Q9BYT3 whole entry, looked up, the tested form may be a part): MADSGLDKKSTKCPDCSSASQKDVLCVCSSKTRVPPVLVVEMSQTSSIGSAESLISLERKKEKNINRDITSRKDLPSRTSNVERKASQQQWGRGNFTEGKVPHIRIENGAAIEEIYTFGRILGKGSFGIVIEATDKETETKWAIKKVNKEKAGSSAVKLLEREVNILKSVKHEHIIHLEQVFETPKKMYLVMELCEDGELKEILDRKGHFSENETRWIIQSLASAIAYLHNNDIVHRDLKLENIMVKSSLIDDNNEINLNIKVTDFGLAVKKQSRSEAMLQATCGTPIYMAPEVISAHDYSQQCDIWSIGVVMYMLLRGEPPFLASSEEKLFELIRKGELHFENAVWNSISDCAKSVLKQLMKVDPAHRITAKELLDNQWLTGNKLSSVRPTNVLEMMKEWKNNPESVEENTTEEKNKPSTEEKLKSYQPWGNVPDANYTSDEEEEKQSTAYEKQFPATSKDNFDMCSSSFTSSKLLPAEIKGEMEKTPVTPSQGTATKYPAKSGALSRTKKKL
Data set [22] concerns the target Calcium/calmodulin-dependent protein kinase kinase 1 (Homo sapiens) (UniProt Q8N5S9). Put plainly: Inhibition of CAMKK1 (unknown origin) assessed as enzyme activity at 1 uM using 33P ATP by radioactive filter binding assay. Set-up: scale not given: the % may be the effect or the level left.
Data set [23] concerns the target Protein kinase C gamma type (Homo sapiens) (UniProt P05129). Put plainly: Inhibition of human PKCgamma (1 to 697 residues) assessed as enzyme activity at 1 uM using 33P ATP by radioactive filter binding assay. Set-up: scale not given: the % may be the effect or the level left.
Data set [24] deals with Ephrin type-B receptor 1 (Homo sapiens) (UniProt P54762). Put plainly: Inhibition of human EPHB1 (565 to 984 residues) assessed as enzyme activity at 1 uM using 33P ATP by radioactive filter binding assay. Set-up: scale not given: the % may be the effect or the level left.

Chain of Interleukin-1 receptor-associated kinase 1 (Homo sapiens) (P51617 whole entry, looked up, the tested form may be a part): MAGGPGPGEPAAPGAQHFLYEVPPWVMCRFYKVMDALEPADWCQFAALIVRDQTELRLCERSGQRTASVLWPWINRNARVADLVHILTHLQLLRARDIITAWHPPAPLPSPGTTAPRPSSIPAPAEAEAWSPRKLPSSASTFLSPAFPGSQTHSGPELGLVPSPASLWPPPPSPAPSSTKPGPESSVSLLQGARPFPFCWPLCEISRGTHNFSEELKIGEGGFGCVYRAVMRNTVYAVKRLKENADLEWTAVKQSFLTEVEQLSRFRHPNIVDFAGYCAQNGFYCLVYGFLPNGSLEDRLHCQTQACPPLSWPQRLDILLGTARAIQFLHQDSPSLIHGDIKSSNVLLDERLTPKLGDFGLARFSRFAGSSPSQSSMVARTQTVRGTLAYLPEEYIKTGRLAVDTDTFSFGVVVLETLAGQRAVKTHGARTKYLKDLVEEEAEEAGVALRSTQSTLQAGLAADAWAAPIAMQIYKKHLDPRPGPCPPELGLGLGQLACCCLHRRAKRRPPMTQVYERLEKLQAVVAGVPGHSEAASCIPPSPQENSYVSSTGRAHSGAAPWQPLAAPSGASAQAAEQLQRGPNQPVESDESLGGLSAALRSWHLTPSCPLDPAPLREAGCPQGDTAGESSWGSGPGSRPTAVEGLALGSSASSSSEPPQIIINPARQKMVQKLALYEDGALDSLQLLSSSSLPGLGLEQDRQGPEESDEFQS
Chain of Death-associated protein kinase 1 (Homo sapiens) (P53355 whole entry, looked up, the tested form may be a part): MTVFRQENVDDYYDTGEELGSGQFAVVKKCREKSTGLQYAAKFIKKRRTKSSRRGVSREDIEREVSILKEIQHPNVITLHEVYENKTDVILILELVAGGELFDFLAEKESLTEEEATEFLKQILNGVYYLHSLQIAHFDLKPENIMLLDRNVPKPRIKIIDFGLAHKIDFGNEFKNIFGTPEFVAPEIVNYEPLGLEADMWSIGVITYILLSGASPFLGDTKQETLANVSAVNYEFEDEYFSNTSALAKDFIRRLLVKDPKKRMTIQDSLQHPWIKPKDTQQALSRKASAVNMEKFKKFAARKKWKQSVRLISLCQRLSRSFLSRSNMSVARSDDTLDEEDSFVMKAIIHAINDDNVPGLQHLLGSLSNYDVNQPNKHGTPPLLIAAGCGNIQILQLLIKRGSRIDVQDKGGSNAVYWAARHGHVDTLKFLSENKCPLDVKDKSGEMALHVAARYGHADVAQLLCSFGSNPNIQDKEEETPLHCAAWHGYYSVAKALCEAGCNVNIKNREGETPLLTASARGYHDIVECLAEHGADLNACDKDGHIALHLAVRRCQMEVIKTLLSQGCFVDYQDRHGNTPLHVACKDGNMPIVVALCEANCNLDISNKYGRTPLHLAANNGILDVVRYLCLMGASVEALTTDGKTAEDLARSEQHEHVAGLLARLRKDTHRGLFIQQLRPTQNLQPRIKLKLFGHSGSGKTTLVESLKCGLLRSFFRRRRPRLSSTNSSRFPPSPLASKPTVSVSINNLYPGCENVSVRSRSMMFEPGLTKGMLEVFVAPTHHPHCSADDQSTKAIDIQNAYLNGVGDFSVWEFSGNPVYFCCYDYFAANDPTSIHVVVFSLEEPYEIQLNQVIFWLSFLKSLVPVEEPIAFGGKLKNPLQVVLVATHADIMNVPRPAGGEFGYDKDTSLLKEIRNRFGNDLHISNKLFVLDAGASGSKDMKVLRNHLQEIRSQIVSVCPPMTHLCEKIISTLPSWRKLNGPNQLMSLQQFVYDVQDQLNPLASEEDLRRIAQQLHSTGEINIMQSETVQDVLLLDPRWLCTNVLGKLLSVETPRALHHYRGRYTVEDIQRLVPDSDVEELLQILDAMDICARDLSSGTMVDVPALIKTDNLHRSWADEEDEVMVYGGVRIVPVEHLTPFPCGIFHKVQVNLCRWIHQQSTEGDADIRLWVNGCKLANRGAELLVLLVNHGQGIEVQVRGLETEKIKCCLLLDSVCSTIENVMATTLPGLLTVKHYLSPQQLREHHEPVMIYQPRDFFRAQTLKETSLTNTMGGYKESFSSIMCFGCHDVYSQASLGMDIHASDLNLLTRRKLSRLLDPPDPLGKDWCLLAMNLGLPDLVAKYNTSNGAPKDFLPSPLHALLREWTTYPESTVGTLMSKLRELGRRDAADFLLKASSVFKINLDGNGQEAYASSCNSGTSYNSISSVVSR
Chain of Mitogen-activated protein kinase kinase kinase 9 (Homo sapiens) (P80192 whole entry, looked up, the tested form may be a part): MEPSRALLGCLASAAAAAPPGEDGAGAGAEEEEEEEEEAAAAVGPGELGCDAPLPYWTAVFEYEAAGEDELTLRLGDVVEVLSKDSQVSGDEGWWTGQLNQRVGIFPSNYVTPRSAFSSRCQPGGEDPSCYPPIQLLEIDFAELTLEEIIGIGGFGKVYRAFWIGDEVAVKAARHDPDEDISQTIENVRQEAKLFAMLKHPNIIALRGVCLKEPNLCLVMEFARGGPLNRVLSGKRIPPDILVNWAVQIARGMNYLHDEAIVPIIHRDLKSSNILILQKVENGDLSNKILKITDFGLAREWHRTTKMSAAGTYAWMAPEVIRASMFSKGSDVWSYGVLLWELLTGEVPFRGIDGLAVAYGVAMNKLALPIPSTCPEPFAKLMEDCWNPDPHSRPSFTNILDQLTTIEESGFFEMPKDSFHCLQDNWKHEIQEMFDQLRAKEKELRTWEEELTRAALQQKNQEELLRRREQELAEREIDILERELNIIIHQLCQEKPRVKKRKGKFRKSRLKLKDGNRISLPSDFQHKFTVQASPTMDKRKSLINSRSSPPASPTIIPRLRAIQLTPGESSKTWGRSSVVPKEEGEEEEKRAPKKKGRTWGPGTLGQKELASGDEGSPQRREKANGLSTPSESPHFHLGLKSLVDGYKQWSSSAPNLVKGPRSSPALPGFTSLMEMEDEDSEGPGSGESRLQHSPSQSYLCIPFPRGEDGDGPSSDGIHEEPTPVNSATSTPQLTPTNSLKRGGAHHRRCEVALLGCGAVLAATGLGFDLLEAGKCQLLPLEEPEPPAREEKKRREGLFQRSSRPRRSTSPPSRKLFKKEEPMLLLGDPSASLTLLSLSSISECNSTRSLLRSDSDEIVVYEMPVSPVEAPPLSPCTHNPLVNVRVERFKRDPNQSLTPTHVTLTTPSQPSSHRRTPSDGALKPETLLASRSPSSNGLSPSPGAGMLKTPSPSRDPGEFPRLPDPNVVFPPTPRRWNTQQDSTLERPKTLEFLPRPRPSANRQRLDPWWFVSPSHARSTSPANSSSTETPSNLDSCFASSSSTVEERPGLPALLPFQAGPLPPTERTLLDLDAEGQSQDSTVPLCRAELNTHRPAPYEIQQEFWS

Turning to `CCCCc1cc(-c2c[nH]c3ncc(-c4cnn(C5CCNCC5)c4)cc23)nc(N)n1`, the Activity in the data set with MAPK3 (ERK1) is -32%. Also, the Ratio in [1] is given as 37.

Regarding `Nc1nccc(-c2c[nH]c3ncccc23)n1` [MERIOLIN 1], the Activity in [2] was 1%; in data set [3], -4%; in data set [4], -28%; in data set [5], -14%; in [6], 15%; in [7] it was 15%. For the same molecule, the Activity in data set [8] is -17%; in data set [9], -31%; in [10], -78%; in data set [11], -15%; in data set [13], -9%; in data set [14], -10%. Also, the Activity in data set [15] is -49%; in data set [16] it was -35%; in [17], -57%; in data set [18], 1%; in data set [19], -26%; in data set [20] it was -20%. For the same molecule, the Activity in data set [21] was -23%; in data set [22], -33%; in data set [23], -5%; in [24], -10%. The IC50 (in general, the midpoint of a concentration-inhibition curve) in data set [12] was 5.9 µM.

Source of the values: ChEMBL document CHEMBL3813616, “Discovery of novel 7-azaindoles as PDK1 inhibitors” (Bioorg Med Chem Lett, 2016).
